In test [1] the test system is cathepsin S in keratinocytes. The following applies: cited from earlier work. The source says: We have identified a new peptide ligand generated by cathepsin S cleavage of PAR2. […] Our findings support a mechanism by which an N-terminal tethered ligand generated by cathepsin S cleavage might propagate PAR2 signaling in keratinocytes, or other target cells, surrounding a primary focus of inflammation. A possible scenario with respect to cutaneous inflammation could be as follows: IFN-γ, ...

In the next test the test system is cathepsin S. As to the kind of experiment: Cathepsin S digestion of the human PAR2 N-terminal peptide (LC/MS/MS). It is filed as biochemical. Particulars: cathepsin S 1 µM, pH 7.0, 37°C, 20 minutes; MS/MS sequencing. Here is the method: Recombinant human cathepsin S was produced as follows. The human cathepsin S proprotein coding region was isolated by PCR using the forward and reverse primers […] CCTG and […] and a template of plasmid DNA containing the entire coding sequence of human cathepsin S. The PCR product was cut with Nco I and Xho I, and cloned into the pTYB4 expression vector from New England Biolabs for expression in E.coli. Cells were grown in LB medium induced with 0.3 mM IPTG, harvested by centrifugation, resuspended in lysis buffer A (0.5 M NaCl, 0.05 M Tris, 5 mM EDTA, pH 8.0) and lysed in a French press. The lysate was centrifuged and the protein was found predominantly in inclusion bodies which were dissolved in buffer B (10 mM DTT and 8 M urea), and refolded in the presence of buffer B containing 0.7 M L-arginine, 0.01 M glutathione, 0.001 M glutathione disulfide, and 0.005 M EDTA as described. […] The specific activity of cathepsin S was assayed using Z-VVR-AMC in fluorimetric and Z-FR-pNA in colorimetric assays[22] and determined to be 10,000 mU/mg protein.
A peptide comprising the N-terminus of PAR2, […], was dissolved in 50 mM Tris, pH 7.0, 0.1 M NaCl, 0.1 mM EDTA, and 0.01% Tween-20 to a concentration of 100 mM. […] The reaction samples were analyzed by the Harvard Microchemistry & Proteomics Analysis Facility (Cambridge, MA). […]

For test [2], the system named is human PAR2. The test can be described thus: Fura-2 calcium imaging in HeLa cells transfected with PAR2 cDNA. The format is cell-based. The following applies: for Concentration-effect curve, calcium-dependent response (in words): peptides 1 nM - 1 mM, triplicate, Fura-2 ratiometric imaging. Here is the method:
Human PAR2 cDNA was cloned as an Xho I-Hind III fragment (1206 bp) into pcDNA3.1(−). 10 µg of DNA were diluted into 0.5 ml of DMEM and mixed with 0.5 ml of DMEM containing 10 µl of Lipofectamine 2000 transfection reagent and incubated at room temperature for 20 minutes. HeLa cells were grown to confluence, trypsinized and 1×10^6 cells were pelleted in a 15 ml tube by centrifugation at 1000 rpm for 5 minutes. The DMEM-Lipofectamine 2000-DNA mixture (1 ml) was added to the cell pellet, resuspended gently and incubated at room temperature for 20 minutes. Four ml of complete DMEM with 10% FBS were added to the tube, mixed by inverting the tube several times, plated into a 96-well glass bottom plate at 20,000 cells/well, and placed in a 37°C CO2 incubator. HeLa cells transfected with vector alone or salmon sperm DNA (shown in the figures) were plated as a control. The medium was aspirated two days after transfection. Fura-2 was used as a ratiometric calcium-sensitive indicator as follows. 100 µl of complete DMEM containing 2 µM of Fura-2 were added to each well and left at room temperature in the dark for 1 hr. Following loading with Fura-2, the medium was aspirated and replaced with 90 µl of HEPES-buffered saline (20 mM HEPES, 115 mM NaCl, 5.4 mM KCl, 2 mM CaCl2, 0.8 mM MgCl2, 13.8 mM glucose, pH 7.4).
Imaging was performed using a Zeiss Axiovert 200 M microscope platform equipped with a flipping filter wheel for ratiometric imaging. Axiovision software, version 4.6 was used for image analysis of the cells which were excited at 340 nm and 380 nm. Ten µl of peptide agonist were added at 20 seconds after the start of the excitation procedure. Images were taken every 5 seconds, including at zero time, during a 3-minute period or longer if required. The software later analyzed all images taken during each excitation period. Typically, ratiometric changes were measured in 10–20 cells in each image. An average of the fluorescence of the cells in each image was calculated and plotted against time in seconds.
HeLa cells transfected with PAR2 cDNA were subjected to ratiometric imaging as described above with PAR2 peptides, SLIGRL, KVDGTS, and SLIGKVDGTS in addition to the reverse peptides LRGILS and STGDVK at concentrations from 1 nM - 1 mM. Each of the concentration-dependent readings was performed in triplicate. Maximum intensities at each of the dilutions were calculated and plotted against concentration using GraphPad/PRISM software version 6.0 (Irvine, CA). Error bars represent +/−SEM.

Test [3] relates to PKC (βII Ser660) phosphorylation in PAR2-transfected HeLa cells. The test can be described thus: Western blot for p-PKC (Ser660) in PAR2-transfected HeLa cells. The format is cell-based, human. The following applies: 10 minutes, room temperature; SLIGRL 10 µM, SLIGKVDGTS 10 µM, KVDGTS 100 µM, cathepsin S 1 µM. As for the experimental part: HeLa cells were transfected with PAR2 plasmid DNA as described above. Untransfected HeLa cells were plated as a control. Forty-eight hours after transfection, cells were rinsed with PBS three times. Transfected HeLa cells were incubated with either SLIGRL (10 µM), SLIGKVDGTS (10 µM), KVDGTS (100 µM), or cathepsin S (1 µM) at room temperature for 10 minutes. Untransfected HeLa cells were treated with SLIGRL (10 µM) in a similar manner. A subset of transfected HeLa cells remained untreated and served as a negative control. After incubation, cells were harvested, pelleted and lysed by sequential freeze-thaw cycles. Cell lysates were centrifuged at 4°C for 15 minutes. Supernatants were collected and protein concentrations were determined by Bradford assay. Equal amounts of cell lysates were loaded onto NuPAGE Novex Bis-Tris mini gels, electrophoresed and transferred to nitrocellulose membranes using standard protocols. The blot was first probed with rabbit anti-phospho-PKC (βII Ser660) antibody (Cell Signalling Technology, Danvers, MA), and later reprobed with a mouse anti-actin antibody to identify the control actin band at 42 kDa. Primary antibodies were labeled with HRP-conjugated donkey anti-rabbit antibody and HRP-conjugated donkey anti-mouse antibody, respectively, followed by detection of the position of the antigen on the blot.
(Immunoblotting shows a protein as a band on a membrane.)

Test [4] relates to PAR2. Particulars: cited from earlier work; for PAR2 activation (in words): in vitro, plant proteases. The source says: PAR2 signaling has been implicated in the development of inflammatory and bowel diseases, asthma, itch and pain. The receptor is expressed on many types of cells including keratinocytes, sensory neurons, fibroblasts, endothelial cells, and inflammatory cells, [3]. Consistent with this broad expression, PAR2 is involved in numerous physiologic and pathophysiologic processes in response to both endogenous and exogenous proteases.

Test [5] concerns human PAR2. The test can be described thus: IP1 (IP-One HTRF) assay in PAR2-transfected HeLa cells. The format is cell-based. The following applies: 1 hour, 37°C; KVDGTS 100 µM, SLIGRL 10 µM, cathepsin S 1 µM; KVDGTS and SLIGRL after subtracting baseline values; cathepsin S 'in this particular experiment'. As for the experimental part: To determine the effect of PAR2 activation on Gq stimulation, we measured IP1, a downstream metabolite of IP3, using the IP-One HTRF assay from Cis Bio, Medford, MA. HeLa cells were transfected with salmon sperm DNA or PAR2 cDNA as described above, plated in 10 cm culture dishes and incubated at 37°C with 5% CO2. After 24 hours, the cells were trypsinized, counted, plated into 96-well plates at 80,000 cells/well and incubated for another 24 hours. The medium was replaced with a stimulation buffer containing LiCl, per the instructions of the manufacturer. Ligands, including cathepsin S (1 µM), KVDGTS (100 µM) and SLIGRL (10 µM) were added to wells and incubated at 37°C for 1 hour and IP1 levels determined. This assay was performed on multiple wells containing each ligand on three occasions. Error bars represent SEM.
For orientation: Time-resolved FRET reads energy transfer from a long-lived donor to a nearby acceptor.

For test [6], the system named is PAR2. Particulars: cited from earlier work. The source says: Proteases can activate PARs but it has been hypothesized that they can also inactivate them. […] As the cathepsin S cleavage sites identified here are downstream o ...

Entries after “also recorded” stand apart in the source; their conditions may differ.

On to IFN-γ: mediator of inflammation, for which, in test [1], the “induction of cathepsin S (in words)” value is “potent inducer of cathepsin S in keratinocytes”.

Consider KVDGTSHVTGKGVT, for which, in the test on cathepsin S, the “cleavage points (in words)” value is “next most common sequence results in G at the P1 position”.

Consider “LRGILS [reverse peptide of SLIGRL, negative control, reference compound]”, for which the “Concentration-effect curve, calcium-dependent response (in words)” value in the test on human PAR2 [2] is given as “not active”.

Turning to “SLIGKVDGTS [decapeptide which encompasses SLIGKV and KVDGTS]”, in test [3], the “PKC Ser660 phosphorylation (in words)” value is reported as “weaker effect”. In addition, the “Concentration-effect curve, calcium-dependent response (in words)” value with human PAR2 [2] is “curves for SLIGRL and SLIGKVDGTS overlapped; also recorded: activity comparable to that of SLIGRL”.

Turning to “SLIGRL [positive control, reference compound]”, the “intracellular calcium mobilization (in words)” value in the test with PAR2 [4] (primary keratinocytes and various cell lines, no reference given) was “provokes transient intracellular calcium mobilization”. Also, the “PKC Ser660 phosphorylation (in words)” value in test [3] is reported as “weaker effect”. The IP1 level with human PAR2 [5] is approximately 66 nM. Moreover, the “calcium response to the substance as second agent after protease (in words)” value in the test with human PAR2 [2] (PAR2-transfected HeLa, after cathepsin S, papain or trypsin, up to 60 minutes, room temperature) is “failed to induce a calcium response at any time up to 60 minutes”. The “Concentration-effect curve, calcium-dependent response (in words)” value in the test on human PAR2 [2] is “curves for SLIGRL and SLIGKVDGTS overlapped”. The “concentration at which active/effective” value with human PAR2 [2] (summary of these studies (discussion)) was determined as 10 µM.

As for “STGDVK [KVDGTS reverse peptide, reference compound]”, in the test on human PAR2 [2], the “Concentration-effect curve, calcium-dependent response (in words)” value is reported as “not active”.

Turning to bromelain, in the test on PAR2 [4], the “PAR2 activation (in words)” value is on record as “supporting activation”.

Regarding ficin, the “PAR2 activation (in words)” value in the test on PAR2 [4] was “supporting activation”.

For the substance trypsin [reference compound], in the test on PAR2 [6], the “PAR2 cleavage site preference (in words)” value is listed as “cleave PAR2 primarily following arginine residues”. In the test on human PAR2 [2] (PAR2-transfected HeLa, KVDGTS 100 µM, cathepsin S 2 µM, papain 2 µM, trypsin 10 nM, second agent after up to 60 minutes, room temperature), the “effect as first agent on calcium response to second agent (in words)” value is “failed to induce a calcium response at any time up to 60 minutes”.
